# Earlier results, collected in patent publication US7449585B2, “Indazol-3-ones and analogues and derivatives thereof which modulate the function of the vanilloid-1 receptor (VR1)” (Merck Sharp & Dohme Ltd., priority 2003, dated 2008).
# Target: VR1 (Rattus norvegicus, UniProt O35433)
# Details: literature (Wahl et al., Mol. Pharmacol, 59:9, 2001)
# Chain of VR1 (O35433 whole entry): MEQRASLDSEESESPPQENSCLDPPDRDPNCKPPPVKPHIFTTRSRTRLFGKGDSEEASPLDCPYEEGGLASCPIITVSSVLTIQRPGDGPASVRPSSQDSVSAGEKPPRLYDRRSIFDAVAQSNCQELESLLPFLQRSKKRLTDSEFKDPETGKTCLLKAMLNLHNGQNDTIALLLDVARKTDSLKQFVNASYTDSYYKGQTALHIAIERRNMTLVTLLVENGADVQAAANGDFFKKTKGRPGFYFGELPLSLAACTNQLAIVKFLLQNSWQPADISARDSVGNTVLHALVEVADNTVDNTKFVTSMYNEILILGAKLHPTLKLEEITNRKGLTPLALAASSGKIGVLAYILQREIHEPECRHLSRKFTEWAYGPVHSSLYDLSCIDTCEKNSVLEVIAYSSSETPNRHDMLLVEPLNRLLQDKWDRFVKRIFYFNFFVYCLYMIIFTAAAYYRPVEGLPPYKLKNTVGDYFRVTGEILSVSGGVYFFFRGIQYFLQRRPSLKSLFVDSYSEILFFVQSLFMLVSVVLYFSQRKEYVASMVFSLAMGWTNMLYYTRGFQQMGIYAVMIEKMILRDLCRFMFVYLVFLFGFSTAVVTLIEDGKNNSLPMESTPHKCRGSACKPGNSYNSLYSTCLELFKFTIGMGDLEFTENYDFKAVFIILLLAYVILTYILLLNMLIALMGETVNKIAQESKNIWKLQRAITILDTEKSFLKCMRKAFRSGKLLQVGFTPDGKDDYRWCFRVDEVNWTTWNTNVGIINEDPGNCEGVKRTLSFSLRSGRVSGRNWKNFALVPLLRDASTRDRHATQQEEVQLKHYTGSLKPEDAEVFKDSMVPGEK
compound,measurement,value
C=C(C)[C@]12C[C@@H](C)[C@@]34O[C@](Cc5ccccc5)(O[C@@H]1[C@@H]3C=C(COC(=O)Cc1cc(I)c(O)c(OC)c1)C[C@]1(O)C(=O)C(C)=C[C@@H]41)O2 [Iodo-resiniferatoxin],VR1 antagonist potency (in words),nanomolar antagonist
